# Test results: patent US20250282768A1 (Janssen Pharmaceutica NV, priority 2022, published 2025)
# Tested on: p-IKKa levels in L363 (NIK translocated multiple myeloma) cells
# Assay: Assay 2: Effect of compounds on p-IKKa levels in L363 (NIK translocated multiple myeloma) cells
# Type: cell-based
# Details: Homo sapiens, L-363, 6 h, read-out: Assay 2 IC50 (nM), p-IKKa (Ser 176/180) in BAFF stimulated L363 cells with MG132, 6 h; average if tested more than once
# In short: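 Read-out is p-IKKa Ser176/180 by AlphaLISA SureFire in lysates. Cells were BAFF-primed (250 ng/ml) overnight or left unstimulated, then exposed 6 h at 37 °C to compound with MG132 (10 μM), 0.3% DMSO. IC50 from sigmoidal curve fit, normalized between stimulated and unstimulated controls.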
row,SMILES,IC50 [nM]
1,"CN1CC[C@@](O)(c2cn(-c3cccc(-c4ccnc(Nc5cnn6c5CCCC6)n4)n3)nn2)C1=O [Example 251, (R)-3-Hydroxy-1-methyl-3-(1-(6-(2-((4,5,6,7-tetrahydropyrazolo[1,5-a]pyridin-3-yl)amino)pyrimidin-4-yl)pyridin-2-yl)-1H-1,2,3-triazol-4-yl)pyrrolidin-2-one]",< 50
2,Cc1nn(C2CCN(C)CC2)cc1Nc1nccc(-c2cccc(-c3cc([C@]4(O)CCN(C)C4=O)on3)n2)n1 [Example 252],50 to 500
3,"CCn1ccc(Nc2nccc(-c3cccc(-n4cc([C@]5(O)CCN(C)C5=O)nn4)n3)n2)n1 [Example 253, (3R)-3-[1-[6-[2-[(1-Ethylpyrazol-3-yl)amino]pyrimidin-4-yl]-2-pyridyl]triazol-4-yl]-3-hydroxy-1-methyl-pyrrolidin-2-one]",< 50
4,"CN1CC[C@@](O)(c2cc(-c3cccc(-c4ccnc(Nc5ccc(F)cn5)n4)n3)no2)C1=O [Example 254, (R)-3-(3-(6-(2-((5-Fluoropyridin-2-yl)amino)pyrimidin-4-yl)pyridin-2-yl)isoxazol-5-yl)-3-hydroxy-1-methylpyrrolidin-2-one]",50 to 500
5,"COc1ccc(Nc2nccc(-c3cccc(-c4cc([C@]5(O)CCN(C)C5=O)on4)n3)n2)nn1 [Example 255, (R)-3-Hydroxy-3-(3-(6-(2-((6-methoxypyridazin-3-yl)amino)pyrimidin-4-yl)pyridin-2-yl)isoxazol-5-yl)-1-methylpyrrolidin-2-one]",50 to 500
6,"Cc1ccc(Nc2nccc(-c3cccc(-c4cc([C@]5(O)CCN(C)C5=O)on4)n3)n2)nn1 [Example 256, (R)-3-Hydroxy-1-methyl-3-(3-(6-(2-((6-methylpyridazin-3-yl)amino)pyrimidin-4-yl)pyridin-2-yl)isoxazol-5-yl)pyrrolidin-2-one]",50 to 500
7,"CN1CC[C@@](O)(c2cc(-c3cccc(-c4ccnc(Nc5ccnc6c5CCO6)n4)n3)no2)C1=O [Example 257, (R)-3-(3-(6-(2-((2,3-Dihydrofuro[2,3-b]pyridin-4-yl)amino)pyrimidin-4-yl)pyridin-2-yl)isoxazol-5-yl)-3-hydroxy-1-methylpyrrolidin-2-one]",< 50
8,"CN1CC[C@@](O)(c2cc(-c3cccc(-c4ccnc(Nc5nc(CN6CCCC6)cs5)n4)n3)no2)C1=O [Example 258, (R)-3-Hydroxy-1-methyl-3-(3-(6-(2-((4-(pyrrolidin-1-ylmethyl)thiazol-2-yl)amino)pyrimidin-4-yl)pyridin-2-yl)isoxazol-5-yl)pyrrolidin-2-one]",< 50
9,"CN1CC[C@@](O)(c2cc(-c3cccc(-c4ccnc(Nc5cnn6c5CCCC6)n4)n3)no2)C1=O [Example 259, (R)-3-Hydroxy-1-methyl-3-(3-(6-(2-((4,5,6,7-tetrahydropyrazolo[1,5-a]pyridin-3-yl)amino)pyrimidin-4-yl)pyridin-2-yl)isoxazol-5-yl)pyrrolidin-2-one]",< 50
10,"COCc1ccnc(Nc2nccc(-c3cccc(-c4cc([C@]5(O)CCN(C)C5=O)on4)n3)n2)c1 [Example 260, (R)-3-Hydroxy-3-(3-(6-(2-((4-(methoxymethyl)pyridin-2-yl)amino)pyrimidin-4-yl)pyridin-2-yl)isoxazol-5-yl)-1-methylpyrrolidin-2-one]",< 50
11,"CCn1cc(Nc2nccc(-c3cccc(-c4cc([C@@]5(O)C(=O)N(C)CC5(F)F)on4)n3)n2)cn1 [Example 261, (R)-3-(3-(6-(2-((1-Ethyl-1H-pyrazol-4-yl)amino)pyrimidin-4-yl)pyridin-2-yl)isoxazol-5-yl)-4,4-difluoro-3-hydroxy-1-methylpyrrolidin-2-one]",< 50
12,"CN1CC[C@@](O)(c2cc(-c3cccc(-c4ccnc(Nc5cn(C)nc5F)n4)n3)no2)C1=O [Example 262, (R)-3-(3-(6-(2-((3-Fluoro-1-methyl-1H-pyrazol-4-yl)amino)pyrimidin-4-yl)pyridin-2-yl)isoxazol-5-yl)-3-hydroxy-1-methylpyrrolidin-2-one]",< 50
13,"CN1CC[C@@](O)(c2cc(-c3cccc(-c4ccnc(Nc5ccn(C)n5)n4)n3)on2)C1=O [Example 263, (R)-3-Hydroxy-1-methyl-3-(5-(6-(2-((1-methyl-1H-pyrazol-3-yl)amino)pyrimidin-4-yl)pyridin-2-yl)isoxazol-3-yl)pyrrolidin-2-one]",< 50
14,"CN1CC[C@@](O)(c2cc(-c3cccc(-c4ccnc(Nc5cnn(C6COC6)c5)n4)n3)no2)C1=O [Example 264, (R)-3-Hydroxy-1-methyl-3-(3-(6-(2-((1-(oxetan-3-yl)-1H-pyrazol-4-yl)amino)pyrimidin-4-yl)pyridin-2-yl)isoxazol-5-yl)pyrrolidin-2-one]",< 50
15,"Cc1cnnc(Nc2nccc(-c3cccc(-c4cc([C@]5(O)CCN(C)C5=O)on4)n3)n2)n1 [Example 265, (R)-3-Hydroxy-1-methyl-3-(3-(6-(2-((5-methyl-1,2,4-triazin-3-yl)amino)pyrimidin-4-yl)pyridin-2-yl)isoxazol-5-yl)pyrrolidin-2-one]",> 500
16,"CN1CC[C@@](O)(c2cc(-c3cccc(-c4ccnc(Nc5nc(C6CCOCC6)nn5C)n4)n3)no2)C1=O [Example 266, (R)-3-Hydroxy-1-methyl-3-(3-(6-(2-((1-methyl-3-(tetrahydro-2H-pyran-4-yl)-1H-1,2,4-triazol-5-yl)amino)pyrimidin-4-yl)pyridin-2-yl)isoxazol-5-yl)pyrrolidin-2-one]",> 500
17,"CN1CC[C@@](O)(c2cc(-c3cccc(-c4ccnc(Nc5nnn(C)n5)n4)n3)no2)C1=O [Example 267, (R)-3-Hydroxy-1-methyl-3-(3-(6-(2-((2-methyl-2H-tetrazol-5-yl)amino)pyrimidin-4-yl)pyridin-2-yl)isoxazol-5-yl)pyrrolidin-2-one]",50 to 500
18,"Cc1ccc(O)c(Nc2nccc(-c3cccc(-c4cc([C@]5(O)CCN(C)C5=O)on4)n3)n2)n1 [Example 268, (R)-3-Hydroxy-3-(3-(6-(2-((3-hydroxy-6-methylpyridin-2-yl)amino)pyrimidin-4-yl)pyridin-2-yl)isoxazol-5-yl)-1-methylpyrrolidin-2-one]",> 500
19,"Cc1c(Nc2nccc(-c3cccc(-c4cc([C@]5(O)CCN(C)C5=O)on4)n3)n2)cnn1CC(C)(C)O [Example 269, (R)-3-Hydroxy-3-(3-(6-(2-((1-(2-hydroxy-2-methylpropyl)-5-methyl-1H-pyrazol-4-yl)amino)pyrimidin-4-yl)pyridin-2-yl)isoxazol-5-yl)-1-methylpyrrolidin-2-one]",< 50
20,"CN1CC[C@@](O)(c2cc(-c3cccc(-c4ccnc(Nc5ccn(CC6CCOCC6)n5)n4)n3)no2)C1=O [Example 270, (R)-3-Hydroxy-1-methyl-3-(3-(6-(2-((1-((tetrahydro-2H-pyran-4-yl)methyl)-1H-pyrazol-3-yl)amino)pyrimidin-4-yl)pyridin-2-yl)isoxazol-5-yl)pyrrolidin-2-one]",< 50
21,"COCc1nc(Nc2nccc(-c3cccc(-c4cc([C@]5(O)CCN(C)C5=O)on4)n3)n2)n(C)n1 [Example 271, (R)-3-Hydroxy-3-(3-(6-(2-((3-(methoxymethyl)-1-methyl-1H-1,2,4-triazol-5-yl)amino)pyrimidin-4-yl)pyridin-2-yl)isoxazol-5-yl)-1-methylpyrrolidin-2-one]",> 500
